Counter-ions that a name gives are not always drawn.
system: human primary T-cells, IL-2 stimulated proliferation (JAK-1 and JAK-3 dependent; reported as JAK3 activity); test: Human primary T-cell proliferation stimulated by IL-2 (Example 3); type: cell-based; conditions: Homo sapiens, T-cell, tested under conditions described in Example 3 (IL-2 stimulated human primary T-cell proliferation); read-out: ability to inhibit JAK3 activity, IC50 range (Table V)
Outline: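 Peripheral-blood human T-cells pre-activated via TCR/CD28, IL-2-starved overnight, then cultured 72 h at 37 °C with compound in Yssel's medium containing IL-2 (80 U/mL in cell suspension). Proliferation read as viable-cell ATP by CellTiter-Glo luminescence; reduction versus control taken as JAK pathway inhibition.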

Cc1cnc(Nc2cc(C(C)N3CCC3)cc(C(F)(F)F)c2)nc1Nc1ccc2oc(=O)[nH]c2c1 (stereo not shown) [Compound I-464, 5-(2-(3-(1-(azetidin-1-yl)ethyl)-5-(trifluoromethyl)phenylamino)-5-methylpyrimidin-4-ylamino)benzo[d]oxazol-2(3H)-one] and Cc1cnc(Nc2cc(C(C)NC3CCC3)cc(C(F)(F)F)c2)nc1Nc1ccc2oc(=O)[nH]c2c1 (stereo not shown) [Compound I-465, 5-(2-(3-(1-(cyclobutylamino)ethyl)-5-(trifluoromethyl)phenylamino)-5-methylpyrimidin-4-ylamino)benzo[d]oxazol-2(3H)-one] cannot be ordered by IC50: less than 500 nM for the first, less than 500 nM for the second.

Cc1cnc(Nc2cc(F)ccc2F)nc1Nc1ccc2oc(=O)[nH]c2c1 [Compound I-466, 5-[2-(2,5-Difluoro-phenylamino)-5-methyl-pyrimidin-4-ylamino]-3H-benzooxazol-2-one] and Cc1cnc(Nc2cccc(F)c2F)nc1Nc1ccc2oc(=O)[nH]c2c1 [Compound I-467, 5-[2-(2,3-Difluoro-phenylamino)-5-methyl-pyrimidin-4-ylamino]-3H-benzooxazol-2-one] cannot be ordered by IC50: less than 500 nM for the first, less than 500 nM for the second.

Cc1cnc(Nc2ccccc2F)nc1Nc1ccc2oc(=O)[nH]c2c1 [Compound I-468, 5-[2-(2-Fluoro-phenylamino)-5-methyl-pyrimidin-4-ylamino]-3H-benzooxazol-2-one] and Cc1cnc(Nc2ccc(F)cc2)nc1Nc1ccc2oc(=O)[nH]c2c1 [Compound I-470, 5-[2-(4-Fluoro-phenylamino)-5-methyl-pyrimidin-4-ylamino]-3H-benzooxazol-2-one] cannot be ordered by IC50: less than 500 nM for the first, less than 500 nM for the second.

Compared with Cc1cnc(Nc2cc(C(=O)NC3CCC3)cc(C(F)(F)F)c2)nc1Nc1ccc2oc(=O)[nH]c2c1 [Compound I-469, N-Cyclobutyl-3-[5-methyl-4-(2-oxo-2,3-dihydro-benzooxazol-5-ylamino)-pyrimidin-2-ylamino]-5-trifluoromethyl-benzamide], Cc1cnc(Nc2cc(Cl)cc(C(F)(F)F)c2)nc1Nc1ccc2oc(=O)[nH]c2c1 [Compound I-497, 5-[2-(3-Chloro-5-trifluoromethyl-phenylamino)-5-methyl-pyrimidin-4-ylamino]-3H-benzooxazol-2-one] is higher in IC50: less than 500 nM for the first, greater than 10000 nM for the second. The first is the more potent here.

First: Cc1cnc(Nc2ccc(F)c(-c3ccncc3)c2)nc1Nc1ccc2oc(=O)[nH]c2c1 [Compound I-471, 5-(2-(4-fluoro-3-(pyridin-4-yl)phenylamino)-5-methylpyrimidin-4-ylamino)benzo[d]oxazol-2(3H)-one]
Second: Cc1cnc(Nc2ccc(-c3ccncc3)c(F)c2)nc1Nc1ccc2oc(=O)[nH]c2c1 [Compound I-484, 5-(2-(3-fluoro-4-(pyridin-4-yl)phenylamino)-5-methylpyrimidin-4-ylamino)benzo[d]oxazol-2(3H)-one]
The IC50 of the first is lower: less than 500 nM for the first, 500 to 5000 nM for the second.

Cc1cnc(Nc2ccc(F)c(-c3cccnc3)c2)nc1Nc1ccc2oc(=O)[nH]c2c1 [Compound I-472, 5-(2-(4-fluoro-3-(pyridin-3-yl)phenylamino)-5-methylpyrimidin-4-ylamino)benzo[d]oxazol-2(3H)-one] and Cc1cc(Nc2ncc(C)c(Nc3ccc4oc(=O)[nH]c4c3)n2)ccc1-c1cccnc1 [Compound I-483, 5-(5-methyl-2-(3-methyl-4-(pyridin-3-yl)phenylamino)pyrimidin-4-ylamino)benzo[d]oxazol-2(3H)-one formate salt] cannot be ordered by IC50: less than 500 nM for the first, less than 500 nM for the second.

First: Cc1cnc(Nc2cc(C(C)NC(C)C)cc(C(F)(F)F)c2)nc1Nc1ccc2oc(=O)[nH]c2c1 (stereo not shown) [Compound I-473, 5-(2-(3-(1-(isopropylamino)ethyl)-5-(trifluoromethyl)phenylamino)-5-methylpyrimidin-4-ylamino)benzo[d]oxazol-2(3H)-one]
Second: Cc1cnc(Nc2cc(F)cc(F)c2F)nc1Nc1ccc2oc(=O)[nH]c2c1 [Compound I-480, 5-[5-Methyl-2-(2,3,5-trifluoro-phenylamino)-pyrimidin-4-ylamino]-3H-benzooxazol-2-one]
The IC50 of the first is lower: less than 500 nM for the first, greater than 10000 nM for the second.

Cc1cc(C)cc(Nc2ncc(C)c(Nc3cc(C)c4oc(=O)[nH]c4c3)n2)c1 [Compound I-474, 5-(2-(3,5-dimethylphenylamino)-5-methylpyrimidin-4-ylamino)-7-methylbenzo[d]oxazol-2(3H)-one] and Cc1cc(C)cc(Nc2ncc(C)c(Nc3cc(F)c4oc(=O)[nH]c4c3)n2)c1 [Compound I-488, 5-(2-(3,5-dimethylphenylamino)-5-methylpyrimidin-4-ylamino)-7-fluorobenzo[d]oxazol-2(3H)-one] cannot be ordered by IC50: less than 500 nM for the first, less than 500 nM for the second.

First: Cc1cnc(Nc2cc(C)c(C)c(C)c2)nc1Nc1cc(C)c2oc(=O)[nH]c2c1 [Compound I-475, 7-methyl-5-(5-methyl-2-(3,4,5-trimethylphenylamino)pyrimidin-4-ylamino)benzo[d]oxazol-2(3H)-one]
Second: Cc1cnc(Nc2cc(C)c(F)c(C)c2)nc1Nc1cc(C)c2oc(=O)[nH]c2c1 [Compound I-476, 5-(2-(4-fluoro-3,5-dimethylphenylamino)-5-methylpyrimidin-4-ylamino)-7-methylbenzo[d]oxazol-2(3H)-one]
The IC50 of the first is lower: less than 500 nM for the first, greater than 10000 nM for the second. The first is the more potent here.

First: Cc1cnc(Nc2cc(F)c(F)c(F)c2F)nc1Nc1ccc2oc(=O)[nH]c2c1 [Compound I-477, 5-[5-Methyl-2-(2,3,4,5-tetrafluoro-phenylamino)-pyrimidin-4-ylamino]-3H-benzooxazol-2-one]
Second: Cc1cnc(Nc2cc(F)c(F)cc2F)nc1Nc1ccc2oc(=O)[nH]c2c1 [Compound I-481, 5-[5-Methyl-2-(2,4,5-trifluoro-phenylamino)-pyrimidin-4-ylamino]-3H-benzooxazol-2-one]
The IC50 of the first is higher: 500 to 5000 nM for the first, less than 500 nM for the second. The second is the more potent here.

First: Cc1cc(Nc2ncc(C)c(Nc3ccc4oc(=O)[nH]c4c3)n2)ccc1-c1ccncc1 [Compound I-482, 5-(5-methyl-2-(3-methyl-4-(pyridin-4-yl)phenylamino)pyrimidin-4-ylamino)benzo[d]oxazol-2(3H)-one formate salt]
Second: COc1cc(Nc2ncc(C)c(Nc3ccc4oc(=O)[nH]c4c3)n2)ccc1-c1ccncc1 [Compound I-494, 5-(2-(3-methoxy-4-(pyridin-4-yl)phenylamino)-5-methylpyrimidin-4-ylamino)benzo[d]oxazol-2(3H)-one formate salt]
The IC50 of the first is lower: less than 500 nM for the first, 500 to 5000 nM for the second.

COc1ccc(Nc2ncc(C)c(Nc3ccc4oc(=O)[nH]c4c3)n2)cc1-c1ccncc1 [Compound I-486, 5-(2-(4-methoxy-3-(pyridin-4-yl)phenylamino)-5-methylpyrimidin-4-ylamino)benzo[d]oxazol-2(3H)-one formate salt] and COc1ccc(Nc2ncc(C)c(Nc3ccc4oc(=O)[nH]c4c3)n2)cc1-c1cccnc1 [Compound I-487, 5-(2-(4-methoxy-3-(pyridin-3-yl)phenylamino)-5-methylpyrimidin-4-ylamino)benzo[d]oxazol-2(3H)-one formate salt] cannot be ordered by IC50: less than 500 nM for the first, less than 500 nM for the second.

Cc1cnc(Nc2cc(C)c(C)c(C)c2)nc1Nc1cc(F)c2oc(=O)[nH]c2c1 [Compound I-489, 7-fluoro-5-(5-methyl-2-(3,4,5-trimethylphenylamino)pyrimidin-4-ylamino)benzo[d]oxazol-2(3H)-one] and Cc1cnc(Nc2cc(C)c(F)c(C)c2)nc1Nc1cc(F)c2oc(=O)[nH]c2c1 [Compound I-490, 7-fluoro-5-(2-(4-fluoro-3,5-dimethylphenylamino)-5-methylpyrimidin-4-ylamino)benzo[d]oxazol-2(3H)-one] cannot be ordered by IC50: less than 500 nM for the first, less than 500 nM for the second.

COc1cc(Nc2ncc(C)c(Nc3cc(C)c4oc(=O)[nH]c4c3)n2)cc(C)c1F [Compound I-491, 5-(2-(4-fluoro-3-methoxy-5-methylphenylamino)-5-methylpyrimidin-4-ylamino)-7-methylbenzo[d]oxazol-2(3H)-one] and COc1cc(Nc2ncc(C)c(Nc3cc(F)c4oc(=O)[nH]c4c3)n2)cc(C)c1F [Compound I-492, 7-fluoro-5-(2-(4-fluoro-3-methoxy-5-methylphenylamino)-5-methylpyrimidin-4-ylamino)benzo[d]oxazol-2(3H)-one] cannot be ordered by IC50: less than 500 nM for the first, less than 500 nM for the second.

COc1ccc(Nc2ncc(C)c(Nc3ccc4oc(=O)[nH]c4c3)n2)cc1Cl [Compound I-496, 5-[2-(3-Chloro-4-methoxy-phenylamino)-5-methyl-pyrimidin-4-ylamino]-3H-benzooxazol-2-one] showed an IC50 of less than 500 nM.

same assay, conditions: tested under conditions described in Example 3 (IL-2 stimulated human primary T-cell proliferation); read-out: ability to inhibit JAK3 activity, IC50 range (Table V)

Cc1cnc(Nc2cc(C#N)cc(OC(F)F)c2)nc1Nc1ccc2oc(=O)[nH]c2c1 [Compound I-478, N2-(3-cyano-5-difluoromethoxy)phenyl-5-methyl-N4-(2-oxo-2,3-dihydro-1,3-benzoxazol-5-yl)-2,4-pyrimidinediamine] and Cc1cnc(Nc2cc(Cl)cc(OC(F)F)c2)nc1Nc1ccc2oc(=O)[nH]c2c1 [Compound I-495, N2-(3-chloro-5-difluoromethoxy)phenyl-5-methyl-N4-(2-oxo-2,3-dihydro-1,3-benzoxazol-5-yl)-2,4-pyrimidinediamine] cannot be ordered by IC50: less than 500 nM for the first, less than 500 nM for the second.

Cc1cc(Nc2ncc(C)c(Nc3ccc4oc(=O)[nH]c4c3)n2)cc(C(F)(F)F)c1 [Compound I-479, 5-methyl-N2-(3-methyl-5-trifluoromethyl)phenyl-N4-(2-oxo-2,3-dihydro-1,3-benzoxazol-5-yl)-2,4-pyrimidinediamine] and COc1cc(Nc2ncc(C)c(Nc3ccc4oc(=O)[nH]c4c3)n2)cc(C(F)(F)F)c1OC [Compound I-485, N2-(3,4-dimethoxy-5-trifluoromethyl)phenyl-5-methyl-N4-(2-oxo-2,3-dihydro-1,3-benzoxazol-5-yl)-2,4-pyrimidinediamine] cannot be ordered by IC50: less than 500 nM for the first, less than 500 nM for the second.

Cc1cnc(Nc2ccc(C)c(C)c2F)nc1Nc1ccc2oc(=O)[nH]c2c1 [Compound I-493, N2-(3,4-dimethyl-2-fluoro)phenyl-5-methyl-N4-(2-oxo-2,3-dihydro-1,3-benzoxazol-5-yl)-2,4-pyrimidinediamine] showed an IC50 of less than 500 nM.
